Reference: article PMC9968125, “Secondary Metabolites with Anti-Inflammatory Activity from Laurencia majuscula Collected in the Red Sea” (Marine Drugs, 2023)
pIC50: −log10 of the molar value. Entries after “also recorded” stand apart in the source; their conditions may differ. Where two headings read alike, the source gives them in different places.

Experiments:
RAW 264.7 cells = assay: MTT assay, cytostatic activity on RAW 264.7 cells; type: cell-based, mouse; conditions: for Cytostatic Activity: RAW 264.7, at 72 h, n.a. = no cytostatic activity observed at the concentrations tested; for cytostatic activity above the stated concentration: RAW 264.7, 24, 48 and 72 h
Method: In order to verify that the anti-inflammatory activity observed was not due to a potential cytostatic effect of the metabolites, an MTT assay was performed in cells exposed to increasing concentrations of metabolites 1, 2, 4–8, 10, 12–16, 18 and 20–22 for 24, 48 and 72 h (Table 3, Figure 5). The time point that the cytostatic activity was observed reflected its potency since cytotoxicity is a cumulative process.
Mouse macrophage RAW 264.7 cell line was cultured in DMEM medium (cat. # 21885-025, Gibco) supplemented with 10% v/v heat-inactivated fetal bovine serum (cat. # 10270-106, Gibco) and 1% v/v penicillin-streptomycin (cat. # 15070-063, Gibco). Cells were grown in stable conditions, 37 °C and 5% CO2, in a CO2 cell culture sterile incubator. In compound treatments, each compound tested was diluted in Carbowax^TM 400 + 10% abs. ethanol (E/0650DF/17, Fisher chemical), serving also as the control solvent. The final concentration of ethanol in cell culture was 0.01% v/v and of Carbowax^TM 400 0.1% v/v independently of the compound dilution prepared. Macrophage activation was performed using 100 ng/mL LPS (L2630, Sigma) and, in the case of compound-treated cells, macrophages were pre-treated for 1 h with the respective compounds before LPS stimulation.
5 × 10^3 RAW 264.7 mouse macrophages per sample were seeded in 96-well plates (one plate per measurement) and cultured overnight. Cells were treated with the respective compound concentration and incubated for 24, 48 or 72 h. The number of cells was measured prior to treatment and used as normalization control. Thiazolyl Blue Tetrazolium Bromide (MTT) (A2231.001, Applichem) was added to the cells in a final concentration of 500 µg/mL and then cells were incubated at 37 °C plus 5% CO2 for 4 h. The supernatant was removed, and cells were lysed in a mix of 100 μL of isopropanol with 0.4% HCl. The absorbance of each sample was measured using an automated microplate reader (Infinite 200 PRO, Tecan) at 600 nm. The average OD of each treated sample was normalized to the OD of the control sample.

[1] = tested on: nitric oxide (NO) production in LPS-activated RAW 264.7 macrophages; assay: Suppression of NO release (Griess reaction) in LPS/TLR4-activated RAW 264.7 macrophages; type: cell-based, mouse; conditions: for pIC50: 1 h pre-treatment, LPS 100 ng/mL, Griess reaction at 48 h, read-out: Inhibition of NO Production (IC50)
Method: The anti-inflammatory activity of metabolites 1, 2, 4–8, 10, 12–16, 18 and 20–22 was evaluated using the RAW 264.7 macrophage cell line, which has been proven to be a powerful tool for the detection of bioactivity of natural products. The bioactivity of compounds 3, 9, 11, 17 and 19 was not evaluated since they were either proven unstable or isolated in insufficient amounts. RAW 264.7 macrophages were stimulated with the TLR4 ligand LPS, which triggers a pro-inflammatory signal that induces nitric oxide (NO) production, and […] with increasing concentrations of the tested metabolites. The detection of NO was achieved using Griess reaction 48 h following cell activation and was used to determine the IC50 values. Inhibition of NO production was determined by comparing metabolite-treated cells with cells exposed to the vehicle solvent only (0.1% v/v Carbowax^TM 400 and 0.01% v/v ethanol). […] Mouse macrophage RAW 264.7 cell line was cultured in DMEM medium (cat. # 21885-025, Gibco) supplemented with 10% v/v heat-inactivated fetal bovine serum (cat. # 10270-106, Gibco) and 1% v/v penicillin-streptomycin (cat. # 15070-063, Gibco). Cells were grown in stable conditions, 37 °C and 5% CO2, in a CO2 cell culture sterile incubator. In compound treatments, each compound tested was diluted in Carbowax^TM 400 + 10% abs. ethanol (E/0650DF/17, Fisher chemical), serving also as the control solvent. The final concentration of ethanol in cell culture was 0.01% v/v and of Carbowax^TM 400 0.1% v/v independently of the compound dilution prepared. Macrophage activation was performed using 100 ng/mL LPS (L2630, Sigma) and, in the case of compound-treated cells, macrophages were pre-treated for 1 h with the respective compounds before LPS stimulation. 30 × 10^4 RAW 264.7 mouse macrophages per sample were cultured overnight in 24-well plates. The following day, cells were pre-treated for 1 h with the respective compound concentration and then activated using LPS (100 ng/mL) for 48 h. The amount of nitrite, an oxidative product of NO, released in each culture supernatant was measured using Griess reaction. Accordingly, 50 µL of sulfanilamide solution (1% sulfanilamide in 5% H3PO4) was added to 50 µL of cell culture supernatant and the mix was incubated for 5 min at room temperature. Then, 50 µL of NED solution (0.1% N-1-napthylethylenediamine dihydrochlorite in H2O) was added and the absorbance was measured at 540 nm using an automated microplate reader (Infinite 200 PRO, Tecan). All incubations were performed in the dark and the nitrite concentration was estimated using a sodium nitrite standard curve.

[2] = Chemical stability of the isolated compound upon standing; type: physicochemical; conditions: upon standing after isolation
[3] = Mus musculus, RAW264.7, RAW 264.7 macrophages

Structure (SMILES): C#C/C=C\CC(Br)[C@@H]1C[C@@H](OC(C)=O)[C@H](CCCCC)O1 (relative stereo) [Compound 5, (3Z,7S*,9R*,10S*)-9-acetoxy-6-bromo-7,10-epoxypentadec-3-en-1-yne]
- Cytostatic Activity (RAW 264.7 cells): > 50 µM
- pIC50 [1, 3]: 5.43

Structure (SMILES): C[C@@]12O[C@]1(C)CC[C@@]2(C)c1ccc(CO)cc1 (relative stereo) [Compound 10, (1S*,2S*,3R*)-2,3-epoxy-15-hydroxydihydroisolaurene]
- cytostatic activity above the stated concentration (RAW 264.7 cells): above 50 μM
- Cytostatic Activity (RAW 264.7 cells): > 50 µM
- pIC50 [1, 3]: 4.69

Structure (SMILES): Cc1ccc([C@]2(C)CC[C@@]3(C)O[C@]32C)cc1 (relative stereo) [Compound 11, (1S*,2S*,3R*)-2,3-epoxydihydroisolaurene]
- stability of the isolated compound, in words [2]: quite unstable

Structure (SMILES): CC1=C(C)[C@](C)(c2ccc(CBr)cc2)CC1 (single isomer, unassigned) [Compound 8, 15-bromoisolaurene]
- cytostatic activity above the stated concentration (RAW 264.7 cells): above 25 μM
- Cytostatic Activity (RAW 264.7 cells): > 25 µM
- pIC50 [1, 3]: 5.16

Structure (SMILES): CC(=O)CC[C@](C)(C(C)=O)c1ccc(CO)cc1 (single isomer, unassigned) [Compound 14, 2,3-dioxo-15-hydroxy-seco-laurene]
- cytostatic activity above the stated concentration (RAW 264.7 cells): above 25 μM
- Cytostatic Activity (RAW 264.7 cells): > 25 µM
- pIC50 [1, 3]: 4.64

Structure (SMILES): CC1=C(C)[C@](C)(c2ccc(C)cc2)CC1=O (stereo in doubt) [Compound 7, 4-oxoisolaurene]
- cytostatic activity above the stated concentration (RAW 264.7 cells): above 25 μM
- Cytostatic Activity (RAW 264.7 cells): > 25 µM
- pIC50 [1, 3]: 4.60

Structure (SMILES): C#CC=CC(Cl)C1C2CC3OC(OC)(C(Br)CC)C1C3O2 (centres unmarked) [Compound 1, Maneonene F]
- cytostatic activity above the stated concentration (RAW 264.7 cells): did not exhibit any cytostatic activity; also recorded: did not show any cytostatic effect
- pIC50 [1, 3]: 4.99

Structure (SMILES): C#CC=CC(Cl)C1C2CC3OC(OC)(C(Br)CC)C1C3O2 (centres unmarked) [Compound 2, Maneonene G]
- cytostatic activity above the stated concentration (RAW 264.7 cells): above 25 μM
- Cytostatic Activity (RAW 264.7 cells): > 25 µM
- pIC50 ([1]; RAW 264.7 macrophages): 4.90

Structure (SMILES): C#CC=CC(Cl)C1C2CC3OC(OC)(C(Br)CC)C1C3O2 (centres unmarked) [Compound 3, Maneonene H]
- stability of the isolated compound, in words [2]: unstable

Structure (SMILES): C#C/C=C\[C@@H](Cl)[C@H]1[C@@H]2/C(=C(/Br)CC)O[C@@H]3C[C@H]1O[C@H]23 [Compound 4, cis-maneonene D]
- cytostatic activity above the stated concentration (RAW 264.7 cells): did not exhibit any cytostatic activity; also recorded: no significant cytostatic activity
- pIC50 [1, 3]: 5.05

Structure (SMILES): CC1=C(C)[C@](C)(c2ccc(C)cc2)CC1 [Compound 6, isolaurene]
- Cytostatic Activity (RAW 264.7 cells): > 50 µM
- concentration at which significant NO reduction was observed ([1]; LPS-activated RAW 264.7, activity only at this concentration): 62.5 µM
- pIC50 [1, 3]: < 4.20

Structure (SMILES): C=C1[C@](C)(O)CC[C@@]1(C)c1ccc(CO)cc1 [Compound 12, laur-2-ene-3,12-diol]
- cytostatic activity above the stated concentration (RAW 264.7 cells): above 50 μM
- Cytostatic Activity (RAW 264.7 cells): > 50 µM
- pIC50 [1, 3]: 4.34

Structure (SMILES): CC1(C)[C@H](O)CC[C@@]1(C)c1ccc(CO)cc1 [Compound 13, cuparene-3,12-diol]
- cytostatic activity above the stated concentration (RAW 264.7 cells): above 50 μM
- Cytostatic Activity (RAW 264.7 cells): > 50 µM
- pIC50 [1, 3]: 4.62

Structure (SMILES): C=CC(C)(O)CC[C@@H]1C(=C)CC[C@H](Br)C1(C)C (stereo partly drawn) [Compound 15, β-snyderol]
- cytostatic activity above the stated concentration (RAW 264.7 cells): above 25 μM
- Cytostatic Activity (RAW 264.7 cells): > 25 µM
- pIC50 [1, 3]: 4.48

Structure (SMILES): CC1=CC[C@@H](Br)C(C)(C)[C@]12CC[C@](C)(Cl)[C@@H](Br)C2 [Compound 16, 2,10-dibromo-3-chloro-a-chamigrene]
- cytostatic activity above the stated concentration (RAW 264.7 cells): above 25 μM
- Cytostatic Activity (RAW 264.7 cells): > 25 µM
- pIC50 [1, 3]: 5.30

Structure (SMILES): CC1=CC[C@H](C)[C@](C)(O)[C@@]12CC[C@@](C)(Cl)[C@H](Br)C2 [Compound 18, compositacin A]
- pIC50 [1, 3]: 5.45

Structure (SMILES): CC1CCC(O)C2=CCC3C(C3(C)C)C21C (stereo not drawn) [Compound 20, aristol-9-en-1α-ol]
- cytostatic activity above the stated concentration (RAW 264.7 cells): above 50 μM
- Cytostatic Activity (RAW 264.7 cells): > 50 µM
- pIC50 [1, 3]: 4.98

Structure (SMILES): C=C1CCC(Br)C(C)(C)C12CCC1(C)C(Br)CCC(C)(O)C1C2 (centres unmarked) [Compound 21, kahukuene B]
- Cytostatic Activity (RAW 264.7 cells): > 25 µM
- pIC50 [1, 3]: 5.18

Structure (SMILES): CCCCCCCCCCCC/C=C(\Cl)C=O [Compound 22, (2Z)-2-chloro-pentadec-2-enal]
- cytostatic activity above the stated concentration (RAW 264.7 cells): > 3.125 µM
- Cytostatic Activity (RAW 264.7 cells): > 3.12 µM
- pIC50 [1, 3]: 4.88
